What was measured:
[1] = molecular target: T1, 17,20beta-P membrane receptor (ovarian membrane progestin receptor, mPR); assay: competition with [3H]-17, […]β-P, filtration assay; type: binding, Salvelinus alpinus; details: 7 nM [3H]-17,20β-P, ovarian membranes, pH 7.4, +4°C, 30 min; read-out: Concentration (nM) causing 50% displacement
T1 construct: gene paqr7; native receptor in crude ovarian plasma membrane fraction (20,000 g pellet)

[2] = molecular target: T1, 17,20beta-P membrane receptor (ovarian membrane progestin receptor, mPR); assay: radioligand saturation, filtration assay, Scatchard; type: binding, Salvelinus alpinus; details: labelled compound ([3H]-17,20β-P); ovarian membranes, pH 7.4, +4°C, 30 min

Molecule | IC50 [1] [nM] | Kd [2] [nM]
C[C@]12CC[C@H]3[C@@H](CCC4=CC(=O)CC[C@@]43C)[C@@H]1CC[C@@H]2C(=O)CO [11-DOC, 11-deoxycorticosterone] | 132 | 
Clc1ccc(C(c2ccccc2Cl)C(Cl)Cl)cc1 (stereo not drawn) [o,p'-DDD] | 549 | 
ZK 112992 | 1180 | 
C[C@@H](O)[C@@]1(O)CC[C@H]2[C@@H]3CCC4=CC(=O)CC[C@]4(C)[C@H]3CC[C@@]21C [17,20β-P, 17,20beta-dihydroxy-4-pregnen-3-one] | 1.25 | 13.8 ± 1.1
C[C@]12CC[C@H]3[C@@H](CCC4=CC(=O)CC[C@@]43C)[C@@H]1CC[C@@H]2O [T, testosterone] | 18300 | 
C[C@]12CC[C@@H]3c4ccc(O)cc4CC[C@H]3[C@@H]1CC[C@@H]2O [E2, 17β-estradiol] | 37.9 | 
C[C@]12CCC(=O)C=C1CC[C@@H]1[C@@H]2CC[C@@]2(C)[C@H]1CC[C@]2(O)C(=O)CO [DC, 11-deoxycortisol] | 207 | 
CC(C)C(=O)Nc1ccc([N+](=O)[O-])c(C(F)(F)F)c1 [Flutamide] | 256 | 
CN(C)c1ccc([C@H]2C[C@]3(C)[C@@H](CC[C@]3(O)CCCO)[C@@H]3CCC4=CC(=O)CCC4=C32)cc1 [ZK 98299] | 12900 | 
CC(=O)[C@@]1(O)CC[C@H]2[C@@H]3CCC4=CC(=O)CC[C@]4(C)[C@H]3CC[C@@]21C [17α-OH-P, 17α-hydroxyprogesterone] | 69.3 | 
C[C@]12CCC(=O)C=C1CC[C@@H]1[C@@H]2[C@@H](O)C[C@@]2(C)[C@H]1CC[C@]2(O)C(=O)CO [F, cortisol] | 14400 | 
CC(=O)[C@H]1CC[C@H]2[C@@H]3CCC4=CC(=O)CC[C@]4(C)[C@H]3CC[C@]12C [P4, progesterone] | 52.6 | 
C[C@]12CCC(=O)C=C1CC[C@@H]1[C@@H]2CC[C@@]2(C)[C@H]1CC[C@]2(O)[C@H](O)CO [20β-S, 17, 20β, 21-trihydroxy-4-pregnen-3-one] | 145 | 
Clc1ccc(C(c2ccccc2Cl)C(Cl)(Cl)Cl)cc1 (stereo not drawn) [o,p'-DDT] | 378 | 
